Reference: article PMC4818757, “Small molecule inhibitors of the Dishevelled‐CXXC5 interaction are new drug candidates for bone anabolic osteoporosis therapy” (EMBO Molecular Medicine, 2016)

Experiments:
Wnt/β‐catenin pathway = test: TOPflash reporter assay; format: cell-based, murine; conditions: MC3T3E1 cells, 2 days
Procedure: Figure 3 Effect of KY‐02061 on Wnt/β‐catenin pathway, osteoblast differentiation, and ex vivo‐cultured calvaria growth • A MC3T3E1 cells were transfected with pTOPFLASH together with pCMV‐β‐gal. After 24 h, the cells were treated with DMSO, KY‐02061 in DMSO, or 5 μM PolyR‐DBM for 2 days. The luciferase activities of whole‐cell lysates were measured and normalized with β‐galactosidase activities. (n = 3) • B Primary calvaria cells were isolated from the calvariae of 4‐day‐old mice (Manton et al, 2007) and treated with DMSO or KY‐02061 in DMSO for 4 days. ALP activity levels were visualized by ALP staining. • C Primary calvaria cells were treated with DMSO or 5 μM KY‐02061 in DMSO for 14 days. […] The calvaria thicknesses were measured from the stained sections using Image Pro software (E). […] (error bars), and significance was assessed using unpaired Student's t‐test.
Figure 5 Effects of KY‐02327 on Wnt/β‐catenin pathway and osteoblast differentiation in osteoblasts • A MC3T3E1 cells were transfected with pTOPFLASH together with pCMV‐β‐gal. […] The luciferase activities of whole‐cell lysates were measured and normalized with β‐galactosidase activities. (n = 3) • B, C MC3T3E1 cells were treated with indicated concentrations of KY‐02327 for 2 days. β‐Catenin and α‐tubulin were detected by immunoblot (B) or immunofluorescence (C) analyses. […] The mRNA level of osteocalcin (OCN) was measured by qRT–PCR. […]

MC3T3E1 cells = test: β-catenin and Runx2 immunoblot/immunofluorescence in MC3T3E1 cells; format: cell-based, murine; conditions: 2 days, dose‐dependent
Procedure: Figure 5 Effects of KY‐02327 on Wnt/β‐catenin pathway and osteoblast differentiation in osteoblasts • A MC3T3E1 cells were transfected with pTOPFLASH together with pCMV‐β‐gal. After 24 h, the cells were treated with indicated dose of KY‐02327 for 2 days. The luciferase activities of whole‐cell lysates were measured and normalized with β‐galactosidase activities. (n = 3) • B, C MC3T3E1 cells were treated with indicated concentrations of KY‐02327 for 2 days. β‐Catenin and α‐tubulin were detected by immunoblot (B) or immunofluorescence (C) analyses. Nuclei were counterstained with DAPI (C, blue). Scale bars, 100 μm. • D MC3T3E1 cells were treated with indicated concentrations of KY‐02327 for 14 days. The mRNA level of collagen 1a (Col1a) was measured by quantitative real‐time PCR (qRT–PCR). (n = 3) • E MC3T3E1 cells were treated with indicated concentrations of KY‐02327 for 21 days. The mRNA level of osteocalcin (OCN) was measured by qRT–PCR. (n = 3) Data Information: For A, D, and E, the data are the mean ± s.d. (error bars), and significance was assessed using unpaired Student's t‐test. […]

[1] = target: T1, Cytochrome P450 (CYP) 1A2 (Homo sapiens, UniProt P05177); test: Cytochrome P450 inhibition assay, 1A2; conditions: 10 μM; 1A2, C29 and 3A4 together
T1 sequence (P05177 1-516): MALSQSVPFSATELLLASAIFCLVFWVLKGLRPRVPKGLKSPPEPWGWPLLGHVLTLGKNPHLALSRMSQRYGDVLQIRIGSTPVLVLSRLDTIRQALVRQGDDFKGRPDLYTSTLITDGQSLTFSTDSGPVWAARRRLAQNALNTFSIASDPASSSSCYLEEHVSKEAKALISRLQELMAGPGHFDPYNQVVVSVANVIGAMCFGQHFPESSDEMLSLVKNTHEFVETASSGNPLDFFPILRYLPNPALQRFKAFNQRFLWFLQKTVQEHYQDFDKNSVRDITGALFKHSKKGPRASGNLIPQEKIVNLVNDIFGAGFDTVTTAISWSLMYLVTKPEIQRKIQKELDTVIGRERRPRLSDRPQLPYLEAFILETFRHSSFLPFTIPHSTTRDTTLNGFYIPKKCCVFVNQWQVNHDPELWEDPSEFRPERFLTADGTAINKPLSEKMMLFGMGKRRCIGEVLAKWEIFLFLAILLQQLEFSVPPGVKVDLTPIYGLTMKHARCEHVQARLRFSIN

CCOC(=O)c1cc2cc(O)ccc2n1CC(=O)NCCN1CCCCC1 [KY‐02327]
activation of the Wnt/β‐catenin pathway (TOPflash luciferase) (Wnt/β‐catenin pathway): dose‐dependent effect
β‐catenin protein level together with Runx2, nuclear β‐catenin (MC3T3E1 cells): increased
inhibitory effect on the liver enzymes (cytochrome P450) [1]: no inhibitory effect

CCOC(=O)Cn1c(C(=O)OCC)cc2cc(OS(=O)(=O)c3ccc(C)cc3)ccc21 [KY‐02061]
activation of the Wnt/β‐catenin pathway (TOPflash luciferase) (Wnt/β‐catenin pathway): increased
